Molecular target: T1, Protein O-GlcNAcase (Homo sapiens, UniProt O60502)
T1 sequence (O60502 whole entry): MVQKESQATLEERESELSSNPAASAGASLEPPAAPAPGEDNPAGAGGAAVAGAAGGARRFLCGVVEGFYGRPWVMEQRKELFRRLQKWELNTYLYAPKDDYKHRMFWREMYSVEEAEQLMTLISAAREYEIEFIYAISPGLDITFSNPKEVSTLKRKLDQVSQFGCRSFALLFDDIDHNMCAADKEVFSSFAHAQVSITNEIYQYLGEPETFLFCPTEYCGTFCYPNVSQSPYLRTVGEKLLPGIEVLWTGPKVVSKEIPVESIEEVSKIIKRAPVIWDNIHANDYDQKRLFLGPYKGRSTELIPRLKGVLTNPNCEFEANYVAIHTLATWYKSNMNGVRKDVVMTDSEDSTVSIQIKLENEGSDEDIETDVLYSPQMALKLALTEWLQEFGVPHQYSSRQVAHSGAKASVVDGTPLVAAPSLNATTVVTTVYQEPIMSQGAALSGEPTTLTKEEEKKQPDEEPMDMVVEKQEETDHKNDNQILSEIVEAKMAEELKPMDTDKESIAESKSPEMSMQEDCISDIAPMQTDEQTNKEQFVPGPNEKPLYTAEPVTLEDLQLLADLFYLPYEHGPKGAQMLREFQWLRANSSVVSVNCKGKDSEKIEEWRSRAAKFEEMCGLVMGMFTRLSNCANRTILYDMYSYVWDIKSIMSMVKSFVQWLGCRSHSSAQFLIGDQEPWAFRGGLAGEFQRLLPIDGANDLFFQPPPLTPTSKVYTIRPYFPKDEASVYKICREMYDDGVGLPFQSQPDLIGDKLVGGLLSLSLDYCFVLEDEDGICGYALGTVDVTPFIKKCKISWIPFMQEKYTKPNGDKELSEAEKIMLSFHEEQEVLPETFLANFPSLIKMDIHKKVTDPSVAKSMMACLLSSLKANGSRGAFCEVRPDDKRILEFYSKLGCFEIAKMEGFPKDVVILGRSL
Assay: OGA Enzyme Inhibition Biochemical Assay
Experimental: Recombinant full length human OGA enzyme was purchased from Origene. 4-MUGlcNAc substrate was purchased from Sigma. All other reagents were purchased from Sigma or Fisher. Assay buffer consists of the McIlvaine buffer system, pH 6.4 (0.2M Na2HPO4 mixed with 0.1M citric acid) and 0.01% BSA. […] Reactions were incubated for 90 minutes at room temperature and quenched with 40 μl of 3M glycine, pH 10 and read on a Perkin Elmer Envision plate reader (Ex: 355 nm/Em: 460 nm). Compounds were tested with a 10-point dose-response starting from 20 μM with a 4-fold dilution. Data was fit using GraphPad Prism using a 4-parameter fit with variable slope.

Row | IC50 [nM] | Compound
1 | 10 | COc1cc2c(cn1)[C@]1(C[C@H](C)N(Cc3sc(NC(C)=O)nc3F)C1)OC2 (single isomer, unassigned) [US12565504, Example 75-a]
2 | 47 | COc1cc2c(cn1)[C@@]1(C[C@H](C)N(Cc3sc(NC(C)=O)nc3F)C1)OC2 (single isomer, unassigned) [US12565504, Example 75-b]
3 | 4 | COc1nccc2c1COC21C[C@H](C)N(Cc2sc(NC(C)=O)nc2F)C1 (some centres undefined) [US12565504, Example 77]
4 | 10 | CC(=O)Nc1nc(F)c(CN2CC3(C[C@@H]2C)OCc2ncccc23)s1 (some centres undefined) [US12565504, Example 79]

From BindingDB's records for patent US12565504 (Biogen Ma, 2026)
